Target: T1, mu opiate receptor (MOR) (Rattus norvegicus, UniProt P33535)
T1 construct: from tissue; host or cells: striatum (membrane preparation)
Experiment: MOR agonist activity using [35S]GTPgS binding assay in striatal membranes
Format: biochemical
Protocol: To assess the mu opiate receptor (MOR) agonist activity of positive compounds from the FLNA screening, compounds were tested in a [^35S]GTPgS binding assay using striatal membranes. […] This assay measures a functional consequence of receptor occupancy at one of the earliest receptor-mediated events. The assay permits for traditional pharmacological parameters of potency, efficacy and antagonist affinity, with the advantage that agonist measures are not subjected to amplification or other modulation that may occur when analyzing parameters further downstream of the receptor.
Thus, striatal tissue was homogenized in 10 volumes of ice cold 25 mM HEPES buffer, pH 7.4, which contained 1 mM EGTA, 100 mM sucrose, 50 mg/ml leupeptin, 0.04 mM PMSF, 2 mg/ml soybean trypsin inhibitor and 0.2% 2-mercaptoethanol. The homogenates were centrifuged at 800×g for 5 minutes and the supernatants were centrifuged at 49,000×g for 20 minutes. The resulting pellets were suspended in 10 volume of reaction buffer, which contained 25 mM HEPES, pH 7.5, 100 mM NaCl, 50 mg/ml leupeptin, 2 mg/ml soybean trypsin inhibitor, 0.04 mM PMSF and 0.02% […].
The resultant striatal membrane preparation (200 mg) was admixed and maintained (incubated) at 30° C. for 5 minutes in reaction buffer as above that additionally contained 1 mM MgCl2 and 0.5 nM [^35S]GTPgS (0.1 mCi/assay, PerkinElmer Life and Analytical Sciences) in a total volume of 250 ml and continued for 5 minutes in the absence or presence of 0.1-10 mM of an assayed compound of interest. The reaction was terminated by dilution with 750 ml of ice-cold reaction buffer that contained 20 mM MgCl2 and 1 mM EGTA and immediate centrifugation at 16,000×g for 5 minutes.
The resulting pellet was solubilized by sonicating for 10 seconds in 0.5 ml of immunoprecipitation buffer containing 0.5% digitonin, 0.2% sodium cholate and 0.5% NP-40. Normal rabbit serum (1 ml) was added to 1 ml of lysate and incubated at 25° C. for 30 minutes. Nonspecific immune complexes were removed by incubation with 25 ml of protein A/G-conjugated agarose beads at 25° C. for 30 minutes followed by centrifugation at 5,000×g at 4° C. for 5 minutes. The supernatant was divided and separately incubated at 25° C. for 30 minutes with antibodies raised against Gao proteins (1:1,000 dilutions).
The immunocomplexes so formed were collected by incubation at 25° C. for 30 minutes with 40 ml of agarose-conjugated protein A/G beads and centrifugation at 5,000×g at 4° C. for 5 minutes. The pellet was washed and suspended in buffer containing 50 mM Tris-HCl, pH 8.0, and 1% NP-40. The radioactivity in the suspension was determined by liquid scintillation spectrometry. […] DAMGO (1 or 10 mM) was used as a positive control.

[1] = 0.1 μM compound as agonist, Series C-1 table
[2] = 1 μM compound as agonist, Series C-1 table
[3] = 0.1 μM compound as agonist, Series C-2 table
[4] = 1 μM compound as agonist, Series C-2 table

T1 sequence (P33535 whole entry): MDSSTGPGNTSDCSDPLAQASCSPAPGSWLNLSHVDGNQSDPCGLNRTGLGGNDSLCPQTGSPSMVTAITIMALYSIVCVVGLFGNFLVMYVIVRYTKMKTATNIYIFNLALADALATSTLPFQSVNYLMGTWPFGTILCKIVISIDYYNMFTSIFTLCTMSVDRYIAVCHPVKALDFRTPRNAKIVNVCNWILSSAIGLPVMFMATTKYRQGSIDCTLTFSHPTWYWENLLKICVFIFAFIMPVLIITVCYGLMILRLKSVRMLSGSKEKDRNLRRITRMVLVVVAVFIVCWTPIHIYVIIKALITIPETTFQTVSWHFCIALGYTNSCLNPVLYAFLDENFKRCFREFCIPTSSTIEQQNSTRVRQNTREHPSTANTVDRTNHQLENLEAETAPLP

COc1ccc(S(=O)(=O)N2CCC3(CC2)OCCN3S(=O)(=O)c2ccc(OC)c(OC)c2)cc1OC [Compound C0049]
MOR agonist activity ([35S]GTPgS binding to Gao) [1]: 106.6%
MOR agonist activity ([35S]GTPgS binding to Gao) (1 μM + BFNA, Series C-1 table): 81.0%
MOR agonist activity ([35S]GTPgS binding to Gao) [2]: 210.0%

CC(=O)N1CCSC12CCN(S(=O)(=O)c1ccc([N+](=O)[O-])cc1)CC2 [Compound C0050]
MOR agonist activity ([35S]GTPgS binding to Gao) [3]: 110.3%
MOR agonist activity ([35S]GTPgS binding to Gao) (1 μM + BFNA, Series C-2 table): 59.0%
MOR agonist activity ([35S]GTPgS binding to Gao) [4]: 127.6%

CC(O)c1ccc(S(=O)(=O)N2CCC3(CC2)OCCN3S(=O)(=O)c2ccc(C(C)O)cc2)cc1 (stereo not drawn) [Compound C0051]
MOR agonist activity ([35S]GTPgS binding to Gao) [1]: 94.4%
MOR agonist activity ([35S]GTPgS binding to Gao) (1 μM + BFNA, Series C-1 table): 55.9%
MOR agonist activity ([35S]GTPgS binding to Gao) [2]: 170.4%

CC(=O)c1ccc(C(=O)N2CCC3(CC2)OCCN3S(=O)(=O)c2ccc(C(C)=O)cc2)cc1 [Compound C0052]
MOR agonist activity ([35S]GTPgS binding to Gao) [1]: 108.4%
MOR agonist activity ([35S]GTPgS binding to Gao) (1 μM + BFNA, Series C-1 table): 42.7%
MOR agonist activity ([35S]GTPgS binding to Gao) [2]: 162.8%

CC(=O)c1ccc(C(=O)N2CCOC23CCN(S(=O)(=O)c2ccc(C(C)=O)cc2)CC3)cc1 [Compound C0053]
MOR agonist activity ([35S]GTPgS binding to Gao) [1]: 104.0%
MOR agonist activity ([35S]GTPgS binding to Gao) (1 μM + BFNA, Series C-1 table): 93.1%
MOR agonist activity ([35S]GTPgS binding to Gao) [2]: 157.2%

CC(=O)c1ccc(C(=O)N2CCC3(CC2)OCCN3C(=O)c2ccc(C(C)=O)cc2)cc1 [Compound C0054]
MOR agonist activity ([35S]GTPgS binding to Gao) [1]: 68.2%
MOR agonist activity ([35S]GTPgS binding to Gao) (1 μM + BFNA, Series C-1 table): 43.5%
MOR agonist activity ([35S]GTPgS binding to Gao) [2]: 127.0%

CC(=O)c1ccc(S(=O)(=O)N2CCC3(CC2)OCCN3S(C)(=O)=O)cc1 [Compound C0056]
MOR agonist activity ([35S]GTPgS binding to Gao) [3]: 98.6%
MOR agonist activity ([35S]GTPgS binding to Gao) (1 μM + BFNA, Series C-2 table): 86.3%
MOR agonist activity ([35S]GTPgS binding to Gao) [4]: 193.4%

CC(=O)c1ccc(S(=O)(=O)N2CCC3(CC2)NCCS3)cc1 [Compound C0060]
MOR agonist activity ([35S]GTPgS binding to Gao) [3]: 166.5%
MOR agonist activity ([35S]GTPgS binding to Gao) (1 μM + BFNA, Series C-2 table): 143.9%
MOR agonist activity ([35S]GTPgS binding to Gao) [4]: 218.9%

COc1cc(S(=O)(=O)N2CCC3(CC2)OCCN3S(=O)(=O)c2cc(OC)c(OC)c(OC)c2)cc(OC)c1OC [Compound C0062]
MOR agonist activity ([35S]GTPgS binding to Gao) [1]: 127.8%
MOR agonist activity ([35S]GTPgS binding to Gao) (1 μM + BFNA, Series C-1 table): 59.8%
MOR agonist activity ([35S]GTPgS binding to Gao) [2]: 310.5%

CC(=O)c1ccc(S(=O)(=O)N2CCC3(CC2)NC(=O)CN3S(=O)(=O)c2ccc(C(C)=O)cc2)cc1 [Compound C0064]
MOR agonist activity ([35S]GTPgS binding to Gao) [1]: 213.8%
MOR agonist activity ([35S]GTPgS binding to Gao) (1 μM + BFNA, Series C-1 table): 38.1%
MOR agonist activity ([35S]GTPgS binding to Gao) [2]: 349.6%

CC(=O)c1ccc(S(=O)(=O)N2CCC3(CC2)OC(CN(C)C)CN3S(=O)(=O)c2ccc(C(C)=O)cc2)cc1 (stereo not drawn) [Compound C0065]
MOR agonist activity ([35S]GTPgS binding to Gao) [1]: 198.3%
MOR agonist activity ([35S]GTPgS binding to Gao) (1 μM + BFNA, Series C-1 table): 47.7%
MOR agonist activity ([35S]GTPgS binding to Gao) [2]: 279.5%

O=S(=O)(c1ccc(Cl)cc1)N1CCC2(CC1)OCCN2S(=O)(=O)c1ccc(Cl)cc1 [Compound C0067]
MOR agonist activity ([35S]GTPgS binding to Gao) [1]: 142.7%
MOR agonist activity ([35S]GTPgS binding to Gao) (1 μM + BFNA, Series C-1 table): 33.5%
MOR agonist activity ([35S]GTPgS binding to Gao) [2]: 179.0%

O=S(=O)(c1ccc(Br)cc1C(F)(F)F)N1CCC2(CC1)OCCN2S(=O)(=O)c1ccc(Br)cc1C(F)(F)F [Compound C0068]
MOR agonist activity ([35S]GTPgS binding to Gao) [1]: 107.2%
MOR agonist activity ([35S]GTPgS binding to Gao) (1 μM + BFNA, Series C-1 table): 165.9%
MOR agonist activity ([35S]GTPgS binding to Gao) [2]: 263.1%

O=S(=O)(c1ccc(Br)cc1Br)N1CCC2(CC1)OCCN2S(=O)(=O)c1ccc(Br)cc1Br [Compound C0070]
MOR agonist activity ([35S]GTPgS binding to Gao) [1]: 165.6%
MOR agonist activity ([35S]GTPgS binding to Gao) (1 μM + BFNA, Series C-1 table): 114.2%
MOR agonist activity ([35S]GTPgS binding to Gao) [2]: 210.8%

O=S(=O)(c1ccc(C(F)(F)F)cc1Br)N1CCC2(CC1)OCCN2S(=O)(=O)c1ccc(C(F)(F)F)cc1Br [Compound C0071]
MOR agonist activity ([35S]GTPgS binding to Gao) [1]: 276.3%
MOR agonist activity ([35S]GTPgS binding to Gao) (1 μM + BFNA, Series C-1 table): 177.1%
MOR agonist activity ([35S]GTPgS binding to Gao) [2]: 355.3%

O=S(=O)(c1ccc(F)c(F)c1)N1CCC2(CC1)OCCN2S(=O)(=O)c1ccc(F)c(F)c1 [Compound C0072]
MOR agonist activity ([35S]GTPgS binding to Gao) [1]: 172.7%
MOR agonist activity ([35S]GTPgS binding to Gao) (1 μM + BFNA, Series C-1 table): 67.1%
MOR agonist activity ([35S]GTPgS binding to Gao) [2]: 259.1%
